Among the data in patent publication US20150344444A1, “BET-PROTEIN-INHIBITING DIHYDROXYQUINOXALINONES” (BAYER PHARMA AKTIENGESELLSCHAFT, priority 2012, published 2015) are IC50 values, retold here.

The term IC50 denotes the point on the concentration scale where inhibition reaches its midpoint. The low end stands for greater potency, the high end for weaker potency.

The assay has as its target T1, BRD4 Bromo Domain 1 [BRD4(1)] (Homo sapiens, UniProt O60885).
T1 construct: N-terminally His6-tagged BRD4(1) (amino acids 67-152); made in house; host or cells: E. coli
Kind of assay: BRD4(1)/acetylated peptide H4 binding assay (TR-FRET). The conditions noted are these: inhibition of interaction between His6-tagged BRD4(1) (amino acids 67-152) and acetylated histone H4 peptide. An excerpt:
Protein-Protein Interaction Assay: BRD4/Acetylated Peptide H4 Binding Assay
1. Assay Description for BRD4 Bromo Domain 1 [BRD4(1)]
To assess the BRD4(1) binding strength of the substances described in this application, the ability thereof to inhibit the interaction between BRD4(1) and acetylated histone H4 in a dose-dependent manner was quantified.
For this purpose, a time-resolved fluorescence resonance energy transfer (TR-FRET) assay was used, which measures the binding between N-terminally His6-tagged BRD4(1) (amino acids 67-152) and a synthetic acetylated histone H4 (Ac-H4) peptide with sequence GRGK(Ac)GGK(Ac)GLGK(Ac)GGAK(Ac)RHGSGSK-biotin. The recombinant BRD4(1) protein produced in house according to Filippakopoulos et al., Cell, 2012, 149:214-231 was expressed in E. coli and purified by means of (Ni-NTA) affinity and (Sephadex G-75) size exclusion chromatography. The Ac-H4 peptide can be purchased, for example, from Biosyntan (Berlin, Germany).
In the assay, typically 11 different concentrations of each substance (0.1 nM, 0.33 nM, 1.1 nM, 3.8 nM, 13 nM, 44 nM, 0.15 μM, 0.51 μM, 1.7 μM, 5.9 μM and 20 μM) were analysed as duplicates on the same microtitre plate. For this purpose, 100-fold concentrated solutions in DMSO were prepared by serial dilutions (1:3.4) of a 2 mM stock solution into a clear, 384-well microtitre plate (Greiner Bio-One, Frickenhausen, Germany). From this, 50 nl were transferred into a black test plate (Greiner Bio-One, Frickenhausen, Germany). The test was started by the addition of 2 μl of a 2.5-fold concentrated BRD4(1) solution (final concentration typically 10 nM in the 5 μl of reaction volume) in aqueous assay buffer [50 mM HEPES pH 7.5, 50 mM sodium chloride (NaCl), 0.25 mM CHAPS and 0.05% serum albumin (BSA)] to the substances in the test plate. This was followed by a 10-minute incubation step at 22° C. for the pre-equilibration of putative complexes between BRD4(1) and the substances.
The mixture was then incubated in the dark at 22° C. for one hour and then at 4° C. for at least 3 hours and for no longer than overnight. The formation of BRD4(1)/Ac-H4 complexes was determined by the measurement of the resonance energy transfer from the streptavidin-Eu cryptate to the anti-6His-XL665 antibody present in the reaction. For this purpose, the fluorescence emission was measured at 620 nm and 665 nm after excitation at 330-350 nm in a TR-FRET measuring instrument, for example a Rubystar or Pherastar (both from BMG Lab Technologies, Offenburg, Germany) or a Viewlux (Perkin-Elmer). The ratio of the emissions at 665 nm and at 622 nm was taken as an indicator of the amount of BRD4(1)/Ac-H4 complexes formed.
The data (ratios) obtained were normalized, with 0% inhibition corresponding to the mean from the measurements for a set of controls (typically 32 data points) in which all the reagents were present. In these, in place of test substances, 50 nl of DMSO (100%) were used Inhibition of 100% corresponded to the mean from the measurements for a set of controls (typically 32 data points) in which all the reagents except BRD4(1) were present. The IC50 was determined by regression analysis based on a 4-parameter equation (minimum, maximum, IC50, Hill; Y=max+(min−max)/(1+(X/IC50)Hill).
On the technique in general: Time-resolved FRET reads energy transfer from a long-lived donor to a nearby acceptor.
With `C[C@@H]1C(=O)N(C)c2ccc(Nc3ccc(C(=O)N4CCOCC4)cc3)cc2N1C1CCCCCC1` [Example 24, (3R)-4-cycloheptyl-1,3-dimethyl-6-{[4-(morpholin-4-ylcarbonyl)phenyl]amino}-3,4-dihydroquinoxalin-2(1H)-one], the IC50 was 143 nM.
The figure for `C[C@@H]1C(=O)N(C)c2ccc(Nc3ccc(C(=O)NCC4COC4)cc3)cc2N1C1CCCCCC1` [Example 25, 4-{[(3R)-4-cycloheptyl-1,3-dimethyl-2-oxo-1,2,3,4-tetrahydroquinoxalin-6-yl]amino}-N-(oxetan-3-ylmethyl)benzamide] is 454 nM; for `C[C@@H]1C(=O)N(C)c2ccc(Nc3ccc(C(=O)NC4CCN(C)CC4)cc3)cc2N1C1CCOCC1` [Example 26, 4-{[(3R)-1,3-dimethyl-2-oxo-4-(tetrahydro-2H-pyran-4-yl)-1,2,3,4-tetrahydroquinoxalin-6-yl]amino}-N-(1-methylpiperidin-4-yl)benzamide] it is 374 nM.
As for `C[C@@H]1C(=O)N(C)c2ccc(Nc3ccc(C(=O)N4CCOCC4)cc3)cc2N1C1CCOCC1` [Example 27, (3R)-1,3-dimethyl-6-{[4-(morpholin-4-ylcarbonyl)phenyl]amino}-4-(tetrahydro-2H-pyran-4-yl)-3,4-dihydroquinoxalin-2(1H)-one], the IC50 worked out at 230 nM.
The figure for `C[C@@H]1C(=O)N(C)c2ccc(Nc3ccc(C(=O)NCC4COC4)cc3)cc2N1C1CCOCC1` [Example 28, 4-{[(3R)-1,3-dimethyl-2-oxo-4-(tetrahydro-2H-pyran-4-yl)-1,2,3,4-tetrahydroquinoxalin-6-yl]amino}-N-(oxetan-3-ylmethyl)benzamide] is 366 nM; for `C[C@@H]1C(=O)N(C)c2ccc(Nc3ccc(C(=O)N4CC5(COC5)C4)cc3)cc2N1C1CCOCC1` [Example 29] it is 185 nM; for `C[C@@H]1C(=O)N(C)c2ccc(Nc3ccc(C(=O)NCCN4CCN(C)CC4)cc3)cc2N1C1CCOCC1` [Example 30, 4-{[(3R)-1,3-dimethyl-2-oxo-4-(tetrahydro-2H-pyran-4-yl)-1,2,3,4-tetrahydroquinoxalin-6-yl]amino}-N-[2-(4-methylpiperazin-1-yl)ethyl]benzamide] it is 384 nM.
Then `C[C@@H]1C(=O)N(C)c2ccc(Nc3ccc(C(=O)N4CC5(CCS5(=O)=O)C4)cc3)cc2N1C1CCOCC1` [Example 31, (3R)-6-({4-[(1,1-dioxido-1-thia-6-azaspiro[3.3]hept-6-yl)carbonyl]phenyl}amino)-1,3-dimethyl-4-(tetrahydro-2H-pyran-4-yl)-3,4-dihydroquinoxalin-2(1H)-one], with 192 nM; and `CC(=O)N1CCC(NC(=O)c2ccc(Nc3ccc4c(c3)N(C3CCOCC3)[C@H](C)C(=O)N4C)cc2)CC1` [Example 32, N-(1-acetylpiperidin-4-yl)-4-{[(3R)-1,3-dimethyl-2-oxo-4-(tetrahydro-2H-pyran-4-yl)-1,2,3,4-tetrahydroquinoxalin-6-yl]amino}benzamide], with 371 nM; and `CC(C)N1CCN(C(=O)c2ccc(Nc3ccc4c(c3)N(C3CCOCC3)[C@H](C)C(=O)N4C)cc2)CC1` [Example 33], with 310 nM.
Turning to `C[C@@H]1C(=O)N(C)c2ccc(Nc3ccc(C(=O)NC4CN(C)C4)cc3)cc2N1C1CCOCC1` [Example 34, 4-{[(3R)-1,3-dimethyl-2-oxo-4-(tetrahydro-2H-pyran-4-yl)-1,2,3,4-tetrahydroquinoxalin-6-yl]amino}-N-(1-methylazetidin-3-yl)benzamide], the IC50 turned out to be 511 nM.
The compound `C[C@@H]1C(=O)N(C)c2ccc(Nc3ccc(C(=O)NC4CC4)cc3)cc2N1C1CCOCC1` [Example 35, N-cyclopropyl-4-{[(3R)-1,3-dimethyl-2-oxo-4-(tetrahydro-2H-pyran-4-yl)-1,2,3,4-tetrahydroquinoxalin-6-yl]amino}benzamide] showed an IC50 of 365 nM.
